# Measured values as given in patent US9913843B2, “Protein kinase C inhibitors and uses thereof” (Rigel Pharmaceuticals, Inc., priority 2012, dated 2018).
# Like-named read-outs stand apart in the source and are kept apart here.
# Tested on: PKC mediated IL-2 production in human primary T cells
# Assay: IL-2 ELISA, human primary T cell, anti CD3+CD28+ (whole cell functional assay for PKC mediated IL-2 production)
# Type: cell-based
# Procedure, shortened: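 IL-2 in supernatants was quantified by ELISA after 24 h at 37 °C. Before stimulation with plate-coated anti-CD3 (1 μg/ml) and anti-CD28 (5 μg/ml), T cells expanded from PBMC were exposed to compound for 1 h; the counter-screen replaced antibodies with PMA 0.5 ng/ml and ionomycin 0.1 μM (final).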
# [1] = 24 h, human primary T cells stimulated with anti-CD3 + anti-CD28, IL-2 by ELISA, read-out: IC50 for blocking IL-2 production
# [2] = human primary T cells stimulated with anti-CD3 + anti-CD28, 24 h, IL-2 by ELISA, 8 pt, read-out: IL2 ELISA, Human primary T cell, anti-CD3 + CD28, 8 pt (IC50)
Structure (SMILES),IC50 [1],IC50 [2]
"COc1ccc(Nc2ncc(C)c(NC[C@@H]3CCCN4CCCC[C@H]34)n2)cc1-n1nnnc1C [Compound 64, N4-(((1S,9aR)-octahydro-1H-quinolizin-1-yl)methyl)-N2-(4-methoxy-3-(5-methyl-1H-tetrazol-1-yl)phenyl)-5-methylpyrimidine-2,4-diamine]",< 30 µM,0.459 µM
"COc1cc(Nc2ncc(C)c(NC[C@@H]3CCCN4CCCC[C@H]34)n2)cc(-n2nnnc2C)c1 [Compound 65, N4-(((1S,9aR)-octahydro-1H-quinolizin-1-yl)methyl)-N2-(3-methoxy-5-(5-methyl-1H-tetrazol-1-yl)phenyl)-5-methylpyrimidine-2,4-diamine]",< 30 µM,0.0728 µM
"Cc1cnc(Nc2cccc(C#N)c2)nc1NC[C@@H]1CCCN2CCCC[C@H]12 [Compound 66, 3-(4-(((1S,9aR)-octahydro-1H-quinolizin-1-yl)methylamino)-5-methylpyrimidin-2-ylamino)benzonitrile]",< 30 µM,1.48 µM
"Cc1ccc(Nc2ncc(C)c(NC[C@@H]3CCCN4CCCC[C@H]34)n2)cc1C#N [Compound 67, 5-(4-(((1S,9aR)-octahydro-1H-quinolizin-1-yl)methylamino)-5-methylpyrimidin-2-ylamino)-2-methylbenzonitrile]",< 30 µM,1.08 µM
"Cc1cnc(Nc2ccc(C3CC3)c(C#N)c2)nc1NC[C@@H]1CCCN2CCCC[C@H]12 [Compound 68, 5-(4-(((1S,9aR)-octahydro-1H-quinolizin-1-yl)methylamino)-5-methylpyrimidin-2-ylamino)-2-cyclopropylbenzonitrile]",< 30 µM,0.95 µM
"COc1cc(Nc2ncc(C)c(NC[C@@H]3CCCN4CCCC[C@H]34)n2)cc(OC)c1 [Compound 70, N4-(((1S,9aR)-octahydro-1H-quinolizin-1-yl)methyl)-N2-(3,5-dimethoxyphenyl)-5-methylpyrimidine-2,4-diamine]",< 30 µM,1.53 µM
"Cc1cnc(Nc2ccc3oc(=O)[nH]c3c2)nc1NC[C@@H]1CCCN2CCCC[C@H]12 [Compound 71, 5-(4-(((1S,9aR)-octahydro-1H-quinolizin-1-yl)methylamino)-5-methylpyrimidin-2-ylamino)benzo[d]oxazol-2(3H)-one]",< 30 µM,3.75 µM
"COc1cnc(Nc2ccc(C)c(-n3cnnn3)c2)nc1NC[C@@H]1CCCN2CCCC[C@H]12 [Compound 73, N4-(((1S,9aR)-octahydro-1H-quinolizin-1-yl)methyl)-5-methoxy-N2-(4-methyl-3-(1H-tetrazol-1-yl)phenyl)pyrimidine-2,4-diamine]",< 30 µM,3.27 µM
"COc1ccc(Nc2ncc(OC)c(NC[C@@H]3CCCN4CCCC[C@H]34)n2)cc1-n1nnnc1C [Compound 77, N4-(((1S,9aR)-octahydro-1H-quinolizin-1-yl)methyl)-5-methoxy-N2-(4-methoxy-3-(5-methyl-1H-tetrazol-1-yl)phenyl)pyrimidine-2,4-diamine]",< 30 µM,2.42 µM
"COc1cnc(Nc2cccc(C#N)c2)nc1NC[C@@H]1CCCN2CCCC[C@H]12 [Compound 79, 3-(4-(((1S,9aR)-octahydro-1H-quinolizin-1-yl)methylamino)-5-methoxypyrimidin-2-ylamino)benzonitrile]",< 30 µM,5.35 µM
"COc1cnc(Nc2ccc(C)c(C#N)c2)nc1NC[C@@H]1CCCN2CCCC[C@H]12 [Compound 80, 5-(4-(((1S,9aR)-octahydro-1H-quinolizin-1-yl)methylamino)-5-methoxypyrimidin-2-ylamino)-2-methylbenzonitrile]",< 30 µM,2.48 µM
"COc1cc(Nc2ncc(OC)c(NC[C@@H]3CCCN4CCCC[C@H]34)n2)cc(OC)c1 [Compound 83, N4-(((1S,9aR)-octahydro-1H-quinolizin-1-yl)methyl)-5-methoxy-N2-(3,5-dimethoxyphenyl)pyrimidine-2,4-diamine]",< 30 µM,3.87 µM
"COc1cnc(Nc2ccc3oc(=O)[nH]c3c2)nc1NC[C@@H]1CCCN2CCCC[C@H]12 [Compound 84, 5-(4-(((1S,9aR)-octahydro-1H-quinolizin-1-yl)methylamino)-5-methoxypyrimidin-2-ylamino)benzo[d]oxazol-2(3H)-one]",< 30 µM,15.4 µM
"Cc1ccc(Nc2ncc(N(C)C)c(NC[C@@H]3CCCN4CCCC[C@H]34)n2)cc1-n1cnnn1 [Compound 86, N4-(((1S,9aR)-octahydro-1H-quinolizin-1-yl)methyl)-N5,N5-dimethyl-N2-(4-methyl-3-(1H-tetrazol-1-yl)phenyl)pyrimidine-2,4,5-triamine]",< 30 µM,11 µM
"Cc1nnnn1-c1cc(Nc2ncc(N(C)C)c(NC[C@@H]3CCCN4CCCC[C@H]34)n2)ccc1F [Compound 88, N2-(4-fluoro-3-(5-methyl-1H-tetrazol-1-yl)phenyl)-N4-(((1S,9aR)-octahydro-1H-quinolizin-1-yl)methyl)-N5,N5-dimethylpyrimidine-2,4,5-triamine]",< 30 µM,12.7 µM
"Cc1nnnn1-c1ccc(F)c(Nc2ncc(N(C)C)c(NC[C@@H]3CCCN4CCCC[C@H]34)n2)c1 [Compound 89, N2-(2-fluoro-5-(5-methyl-1H-tetrazol-1-yl)phenyl)-N4-(((1S,9aR)-octahydro-1H-quinolizin-1-yl)methyl)-N5,N5-dimethylpyrimidine-2,4,5-triamine]",< 30 µM,14.6 µM
"COc1ccc(Nc2ncc(N(C)C)c(NC[C@@H]3CCCN4CCCC[C@H]34)n2)cc1-n1nnnc1C [Compound 90, N4-(((1S,9aR)-octahydro-1H-quinolizin-1-yl)methyl)-N2-(4-methoxy-3-(5-methyl-1H-tetrazol-1-yl)phenyl)-N5,N5-dimethylpyrimidine-2,4,5-triamine]",< 30 µM,9.82 µM

# Continued, values first:
IC50 [1],IC50 [2],Structure (SMILES)
< 30 µM,1.16 µM,"Cc1cnc(Nc2cc(-n3nnnc3C)ccc2F)nc1NC[C@@H]1CCCN2CCCC[C@H]12 [Compound 63, N2-(2-fluoro-5-(5-methyl-1H-tetrazol-1-yl)phenyl)-N4-(((1S,9aR)-octahydro-1H-quinolizin-1-yl)methyl)-5-methylpyrimidine-2,4-diamine]"
< 30 µM,0.265 µM,"Cc1cnc(Nc2cc(C#N)c(C3CC3)cc2F)nc1NC[C@@H]1CCCN2CCCC[C@H]12 [Compound 69, 5-(4-(((1S,9aR)-octahydro-1H-quinolizin-1-yl)methylamino)-5-methylpyrimidin-2-ylamino)-2-cyclopropyl-4-fluorobenzonitrile]"
< 30 µM,1.27 µM,"COc1cnc(Nc2cc(-n3cnnn3)c(C3CC3)cc2F)nc1NC[C@@H]1CCCN2CCCC[C@H]12 [Compound 72, N2-(4-cyclopropyl-2-fluoro-5-(1H-tetrazol-1-yl)phenyl)-N4-(((1S,9aR)-octahydro-1H-quinolizin-1-yl)methyl)-5-methoxypyrimidine-2,4-diamine]"
< 30 µM,2.19 µM,"COc1cnc(Nc2cc(-n3nnn(C)c3=O)c(C3CC3)cc2F)nc1NC[C@@H]1CCCN2CCCC[C@H]12 [Compound 74, 1-(5-(4-(((1S,9aR)-octahydro-1H-quinolizin-1-yl)methylamino)-5-methoxypyrimidin-2-ylamino)-2-cyclopropyl-4-fluorophenyl)-4-methyl-1H-tetrazol-5(4H)-one]"
< 30 µM,2.91 µM,"COc1cnc(Nc2ccc(F)c(-n3nnnc3C)c2)nc1NC[C@@H]1CCCN2CCCC[C@H]12 [Compound 75, N2-(4-fluoro-3-(5-methyl-1H-tetrazol-1-yl)phenyl)-N4-(((1S,9aR)-octahydro-1H-quinolizin-1-yl)methyl)-5-methoxypyrimidine-2,4-diamine]"
< 30 µM,6.45 µM,"COc1cnc(Nc2cc(-n3nnnc3C)ccc2F)nc1NC[C@@H]1CCCN2CCCC[C@H]12 [Compound 76, N2-(2-fluoro-5-(5-methyl-1H-tetrazol-1-yl)phenyl)-N4-(((1S,9aR)-octahydro-1H-quinolizin-1-yl)methyl)-5-methoxypyrimidine-2,4-diamine]"
< 30 µM,2.24 µM,"COc1cc(Nc2ncc(OC)c(NC[C@@H]3CCCN4CCCC[C@H]34)n2)cc(-n2nnnc2C)c1 [Compound 78, N4-(((1S,9aR)-octahydro-1H-quinolizin-1-yl)methyl)-5-methoxy-N2-(3-methoxy-5-(5-methyl-1H-tetrazol-1-yl)phenyl)pyrimidine-2,4-diamine]"
< 30 µM,1.31 µM,"COc1cnc(Nc2ccc(C3CC3)c(C#N)c2)nc1NC[C@@H]1CCCN2CCCC[C@H]12 [Compound 81, 5-(4-(((1S,9aR)-octahydro-1H-quinolizin-1-yl)methylamino)-5-methoxypyrimidin-2-ylamino)-2-cyclopropylbenzonitrile]"
< 30 µM,1.31 µM,"COc1cnc(Nc2cc(C#N)c(C3CC3)cc2F)nc1NC[C@@H]1CCCN2CCCC[C@H]12 [Compound 82, 5-(4-(((1S,9aR)-octahydro-1H-quinolizin-1-yl)methylamino)-5-methoxypyrimidin-2-ylamino)-2-cyclopropyl-4-fluorobenzonitrile]"
< 30 µM,3.31 µM,"CN(C)c1cnc(Nc2cc(-n3cnnn3)c(C3CC3)cc2F)nc1NC[C@@H]1CCCN2CCCC[C@H]12 [Compound 85, N2-(4-cyclopropyl-2-fluoro-5-(1H-tetrazol-1-yl)phenyl)-N4-(((1S,9aR)-octahydro-1H-quinolizin-1-yl)methyl)-N5,N5-dimethylpyrimidine-2,4,5-triamine]"
< 30 µM,8.26 µM,CN(C)c1cnc(Nc2cc(-n3nnn(C)c3=O)c(C3CC3)cc2F)nc1NC[C@@H]1CCCN2CCCC[C@H]12 [Compound 87]
